The source of these data is article PMC5570900, “Exploiting a novel conformational switch to control innate immunity mediated by complement protein C3a” (Nature Communications, 2017).

Assay [1] addresses T1, C3aR (Homo sapiens, UniProt Q16581).
T1 sequence (Q16581 1-482): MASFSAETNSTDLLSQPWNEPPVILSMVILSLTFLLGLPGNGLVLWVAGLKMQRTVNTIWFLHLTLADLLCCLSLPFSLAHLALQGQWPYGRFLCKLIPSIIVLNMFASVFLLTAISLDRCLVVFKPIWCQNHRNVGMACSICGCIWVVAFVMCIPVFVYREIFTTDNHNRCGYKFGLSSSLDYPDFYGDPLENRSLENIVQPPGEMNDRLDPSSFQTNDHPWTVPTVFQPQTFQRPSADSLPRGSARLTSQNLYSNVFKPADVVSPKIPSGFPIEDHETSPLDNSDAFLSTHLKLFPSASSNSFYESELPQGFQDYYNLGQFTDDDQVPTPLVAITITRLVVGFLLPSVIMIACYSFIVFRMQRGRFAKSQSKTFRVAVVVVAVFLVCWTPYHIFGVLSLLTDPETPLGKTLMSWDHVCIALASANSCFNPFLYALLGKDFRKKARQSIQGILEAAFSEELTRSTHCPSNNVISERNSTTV
In words: Intracellular Ca2+ release in human monocyte-derived macrophages (agonist mode). In kind it is cell-based. Details: Concentration-dependent Ca^2+ release in human monocyte-derived macrophages (HMDMs); endogenous in cells; host or cells: primary human monocyte-derived macrophages (HMDMs). The conditions noted are these: HMDMs, n ≥ 3, ± SEM. Here is the method:
(§1) HMDMs were isolated using Ficoll-paque density centrifugation (GE Healthcare Bio-Science, Uppsala, Sweden) from buffy coat (of anonymous human donors) provided by the Australian Red Cross Blood Service, Brisbane. CD14^+ monocytes were positively selected using CD14 MicroBeads (Miltenyi Biotech, Auburn, USA)[40], [41]. CD14^+ monocytes were differentiated to HMDMs using 100 ng/mL of recombinant human macrophage colony-stimulating factor (PeptroTech, Rocky Hill, USA) for 7 days in Iscove’s modified Dulbecco’s media supplemented with 10% fetal bovine serum, penicillin (100 U/mL), streptomycin (100 µg/mL) and L-glutamine (2 mM). HMDMs were supplemented after 5 days with fresh medium containing 10 ng/ml macrophage colony-stimulating factor and collected by gentle scraping on day 7.
(§2) HMDMs were seeded to a 96-well clear-bottom black-wall assay plate at a density of 5 × 10^4 cells per well and allowed to adhere overnight. Prior to assay, cells were incubated with dye-loading buffer (Hank’s balance salt solution (HBSS) buffer, 4 μM Fluo-3 AM, 25 μl Pluronic acid F-127 and 1% fetal bovine serum) for 1 h at 37 °C. Cells were then washed once with assay buffer (HBSS supplemented with 2.5 mM probenecid and 20 mM HEPES, pH 7.4). Intracellular calcium release was monitored using a fluorescence imaging plate reader (excitation 495 nm, emission 520 nm). The percentage responses were plotted against logarithmic concentrations of each test compound[42].

Assay [2] concerns the target T1, C3aR. The assay is described as follows: Inhibition of hC3a-induced Ca2+ release in human monocyte-derived macrophages. In kind it is cell-based. Details: Concentration-dependent Ca^2+ release in human monocyte-derived macrophages (HMDMs); endogenous in cells; host or cells: primary human monocyte-derived macrophages (HMDMs). The conditions noted are these: HMDMs, hC3a 100 nM, n ≥ 3, ± SEM. The procedure:
as §1, §2

What is called EC50 is the concentration needed to bring the measured effect to its halfway point. The IC50 is the concentration that gives 50% inhibition. The low end stands for inhibition by little substance, the high end for a need for much substance.

In turn, `Cc1[nH]c(C(c2ccccc2)c2ccccc2)nc1C(=O)N[C@@H](CCCNC(=N)N)C(=O)O` [Compound 3] returned an EC50 on C3aR [1] of 22 ± 8 nM. Take `N=C(N)NCCCC(NC(=O)c1ccc(C(c2ccccc2)c2ccccc2)s1)C(=O)O` (centres unmarked) [Compound 6]: the IC50 at C3aR [2] is 85 ± 40 nM.
